Reference: ChEMBL document CHEMBL5370623, “Discovery of Quinazoline-2,4(1H,3H)-dione Derivatives Containing a Piperizinone Moiety as Potent PARP-1/2 Inhibitors─Design, Synthesis, In Vivo Antitumor Activity, and X-ray Crystal Structure Analysis” (J Med Chem, 2023)
In brackets after ≈: the same amount, converted by molar mass. Activity calls are given as the source filed them. The calls are words filed in the database; no cut-off is given here.

Columns and labels:
[1] = molecular target: T1, Poly [ADP-ribose] polymerase 1 (Homo sapiens, UniProt P09874); test: Inhibition of human recombinant PARP1 expressed in Escherichia coli BL21(DE3) incubated for 1 hr by ELISA assay
T1 sequence (P09874 whole entry): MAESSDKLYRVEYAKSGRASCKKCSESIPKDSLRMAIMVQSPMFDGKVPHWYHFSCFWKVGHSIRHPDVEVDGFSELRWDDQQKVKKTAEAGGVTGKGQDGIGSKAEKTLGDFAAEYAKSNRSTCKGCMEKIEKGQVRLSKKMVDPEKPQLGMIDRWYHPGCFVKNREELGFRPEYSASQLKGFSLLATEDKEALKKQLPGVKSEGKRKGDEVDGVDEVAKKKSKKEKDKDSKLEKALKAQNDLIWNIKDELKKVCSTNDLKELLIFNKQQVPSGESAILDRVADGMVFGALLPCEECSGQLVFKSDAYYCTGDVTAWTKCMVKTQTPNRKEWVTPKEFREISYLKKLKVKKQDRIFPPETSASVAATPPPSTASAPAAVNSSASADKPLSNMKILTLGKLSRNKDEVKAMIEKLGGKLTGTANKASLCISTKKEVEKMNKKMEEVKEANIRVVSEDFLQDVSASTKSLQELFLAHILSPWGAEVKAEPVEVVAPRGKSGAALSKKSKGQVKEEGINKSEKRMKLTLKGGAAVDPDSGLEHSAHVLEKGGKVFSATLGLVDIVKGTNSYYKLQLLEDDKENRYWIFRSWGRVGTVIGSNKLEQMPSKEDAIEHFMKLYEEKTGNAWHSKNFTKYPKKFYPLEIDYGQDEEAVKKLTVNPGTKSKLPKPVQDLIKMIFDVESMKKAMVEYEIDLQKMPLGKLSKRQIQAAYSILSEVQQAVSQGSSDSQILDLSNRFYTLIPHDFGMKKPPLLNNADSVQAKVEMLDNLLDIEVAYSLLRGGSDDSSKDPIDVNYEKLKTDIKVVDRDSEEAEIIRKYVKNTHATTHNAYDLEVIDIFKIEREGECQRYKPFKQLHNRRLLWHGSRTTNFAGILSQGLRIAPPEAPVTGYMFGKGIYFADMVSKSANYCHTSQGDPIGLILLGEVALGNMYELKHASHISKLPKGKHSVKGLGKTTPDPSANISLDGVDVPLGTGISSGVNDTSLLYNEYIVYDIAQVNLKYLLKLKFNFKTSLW

[2] = molecular target: T1, Poly [ADP-ribose] polymerase 1; test: Inhibition of human PARP1 in human MX1 cells assessed as enzyme-DNA trapping activity at 1 uM incubated for 24 hrs by Western blot analysis; type: cell-based
[3] = system: MX1; test: Potentiation factor, ratio of IC50 for cytotoxicity against human MX1 cells to IC50 for cytotoxicity against human MX1 cells in presence of temozolomide; type: functional
[4] = molecular target: Poly [ADP-ribose] polymerase 2 (Homo sapiens, UniProt Q9UGN5); test: Inhibition of human recombinant PARP2 expressed in Escherichia coli BL21(DE3) incubated for 1 hr by ELISA assay
Chain of Poly [ADP-ribose] polymerase 2 (Q9UGN5 whole entry): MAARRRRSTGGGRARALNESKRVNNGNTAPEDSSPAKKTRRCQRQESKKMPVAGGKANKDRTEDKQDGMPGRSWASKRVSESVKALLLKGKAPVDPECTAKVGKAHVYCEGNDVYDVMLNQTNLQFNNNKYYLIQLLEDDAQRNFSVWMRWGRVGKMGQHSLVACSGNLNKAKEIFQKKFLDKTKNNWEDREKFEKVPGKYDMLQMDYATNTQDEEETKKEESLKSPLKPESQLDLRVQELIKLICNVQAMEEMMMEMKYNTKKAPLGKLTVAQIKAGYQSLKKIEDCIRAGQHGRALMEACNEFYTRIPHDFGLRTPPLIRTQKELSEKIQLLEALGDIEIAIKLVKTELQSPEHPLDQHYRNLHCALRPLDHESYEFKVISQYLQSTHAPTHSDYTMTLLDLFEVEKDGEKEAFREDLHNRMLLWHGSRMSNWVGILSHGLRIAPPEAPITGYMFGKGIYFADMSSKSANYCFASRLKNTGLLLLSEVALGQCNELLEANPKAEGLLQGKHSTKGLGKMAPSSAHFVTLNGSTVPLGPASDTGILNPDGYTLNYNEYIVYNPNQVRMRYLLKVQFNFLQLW

[5] = system: MX1; test: Cytotoxicity against human MX1 cells […] assessed as inhibition of cell growth measured after 72 hrs by MTT assay; type: functional, cell-based; settings: MX1, 72 h
[6] = MRT (0 to infinity) in BALB/c mouse at 25 mg/kg, po measured upto 24 hrs by LC-MS/MS analysis; type: ADME, organism-based; settings: in vivo
[7] = MRT (0 to t) in BALB/c mouse at 25 mg/kg, po measured upto 24 hrs by LC-MS/MS analysis; type: ADME, organism-based; settings: in vivo
[8] = Aqueous solubility of the compound; type: physicochemical
[9] = Half life in BALB/c mouse at 25 mg/kg, po measured upto 24 hrs by LC-MS/MS analysis; type: ADME, organism-based; settings: in vivo
[10] = Cmax in BALB/c mouse at 25 mg/kg, po measured upto 24 hrs by LC-MS/MS analysis; type: ADME, organism-based; set-up: time < 24 hrs, dose 25 mg/kg, route po; settings: in vivo
[11] = AUC (0 to infinity) in BALB/c mouse at 25 mg/kg, po measured upto 24 hrs by LC-MS/MS analysis; type: ADME, organism-based; set-up: dose 25 mg/kg, time < 24 hrs, route po; settings: in vivo
[12] = Tmax in BALB/c mouse at 25 mg/kg, po measured upto 24 hrs by LC-MS/MS analysis; type: ADME, organism-based; settings: in vivo
[13] = AUC (0 to t) in BALB/c mouse at 25 mg/kg, po measured upto 24 hrs by LC-MS/MS analysis; type: ADME, organism-based; set-up: time < 24 hrs, dose 25 mg/kg, route po; settings: in vivo

SMILES	IC50 [1]	PARP1-DNA trapping activity [2]	IC50 [4]	PF50 [3]	IC50 [5]	also measured
O=C1CN(C(=O)c2cc(Cn3c(=O)[nH]c(=O)c4ccccc43)ccc2F)CCN1CC1CCCCC1	2.38 nM	Active	0.24 nM	>10	9.39 nM	–
CC(C1CCCCC1)N1CCN(C(=O)c2cc(Cn3c(=O)[nH]c(=O)c4ccccc43)ccc2F)CC1=O (configuration not stated)	4.92 nM	–	0.26 nM	>10	3.65 nM	–
CCC(C)N1CCN(C(=O)c2cc(Cn3c(=O)[nH]c(=O)c4ccccc43)ccc2F)CC1=O (configuration not stated)	3.76 nM	–	0.44 nM	>10	33.9 nM	–
CC(C1CCCC1)N1CCN(C(=O)c2cc(Cn3c(=O)[nH]c(=O)c4ccccc43)ccc2F)CC1=O (configuration not stated)	3.67 nM	Active	0.22 nM	>10	1.18 nM	–
O=C(c1cc(Cn2c(=O)[nH]c(=O)c3ccccc32)ccc1F)N1CC(=O)N2CCCCC2C1 (configuration not stated)	9.85 nM	–	3.41 nM	>10	32.6 nM	–
COC(=O)CN1CCN(C(=O)c2cc(Cn3c(=O)[nH]c(=O)c4ccccc43)ccc2F)CC1=O	8.88 nM	–	2.67 nM	4.64	45 nM	–
CC(C)N1CCN(C(=O)c2cc(Cn3c(=O)[nH]c(=O)c4ccccc43)ccc2F)CC1=O	5.06 nM	–	1.72 nM	>10	30.9 nM	–
O=C(c1cc(Cn2c(=O)[nH]c(=O)c3ccccc32)ccc1F)N1CC(=O)N2CCCC2C1 (configuration not stated)	17.2 nM	–	9.2 nM	>10	46.1 nM	–
O=C1CN(C(=O)c2cc(Cn3c(=O)[nH]c(=O)c4ccccc43)ccc2F)CCN1CCC1CC1	2.08 nM	Active	2.15 nM	>10	4.15 nM	–
O=C(c1cc(Cn2c(=O)[nH]c(=O)c3ccccc32)ccc1F)N1CCN(C2CCCCC2)C(=O)C1	2.85 nM	–	0.33 nM	>10	5.79 nM	–
CCC(C)CN1CCN(C(=O)c2cc(Cn3c(=O)[nH]c(=O)c4ccccc43)ccc2F)CC1=O (configuration not stated)	3.02 nM	–	1.32 nM	>10	10.4 nM	–
CC(C)C(C)N1CCN(C(=O)c2cc(Cn3c(=O)[nH]c(=O)c4ccccc43)ccc2F)CC1=O (configuration not stated)	9 nM	Active	1.86 nM	>10	1.67 nM	–
O=C1CN(C(=O)c2cc(Cn3c(=O)[nH]c(=O)c4ccccc43)ccc2F)CCN1	4.33 nM	–	1.88 nM	3.23	> 100 nM	–
CN(C)CCN1CCN(C(=O)c2cc(Cn3c(=O)[nH]c(=O)c4ccccc43)ccc2F)CC1=O	2.39 nM	–	6.75 nM	–	> 100 nM	–
CC(C)CCN1CCN(C(=O)c2cc(Cn3c(=O)[nH]c(=O)c4ccccc43)ccc2F)CC1=O	3.03 nM	–	0.92 nM	>10	12.4 nM	–
O=C(c1cc(Cn2c(=O)[nH]c(=O)c3ccccc32)ccc1F)N1CCN(C2CCCC2)C(=O)C1	1.4 nM	Active	0.29 nM	>10	13.2 nM	–
CCC(CC)N1CCN(C(=O)c2cc(Cn3c(=O)[nH]c(=O)c4ccccc43)ccc2F)CC1=O	3.86 nM	–	0.79 nM	>10	0.65 nM	MRT inf [6]: 42 min; MRT last at 24 h [7]: 32.4 min; solubility [8]: 30.4 µg/mL (≈ 65.1 µM); half-life [9]: 30.6 min; Cmax [10]: 515 ng/mL; AUC(0-inf) [11]: 340 ng·h/mL; Tmax [12]: 4.8 min; AUC(0-t) at 24 h [13]: 316 ng·h/mL
O=C1CN(C(=O)c2cc(Cn3c(=O)[nH]c(=O)c4ccccc43)ccc2F)CCN1CC1CCCC1	2.46 nM	Active	0.1 nM	>10	23.2 nM	–
CCCCCN1CCN(C(=O)c2cc(Cn3c(=O)[nH]c(=O)c4ccccc43)ccc2F)CC1=O	2.71 nM	Active	0.94 nM	>10	331 nM	–

Now from value to compound, other results behind:

IC50 [1]	PARP1-DNA trapping activity [2]	IC50 [4]	SMILES	PF50 [3]	IC50 [5]	also measured
15.5 nM	–	2.92 nM	C#CCN1CCN(C(=O)c2cc(Cn3c(=O)[nH]c(=O)c4ccccc43)ccc2F)CC1=O	>10	28.5 nM	–
11.8 nM	–	3.48 nM	CCCN1CCN(C(=O)c2cc(Cn3c(=O)[nH]c(=O)c4ccccc43)ccc2F)CC1=O	>10	16.5 nM	–
4.68 nM	–	0.38 nM	CC(C)CN1CCN(C(=O)c2cc(Cn3c(=O)[nH]c(=O)c4ccccc43)ccc2F)CC1=O	>10	22.4 nM	–
2.54 nM	Active	0.77 nM	O=C1CN(C(=O)c2cc(Cn3c(=O)[nH]c(=O)c4ccccc43)ccc2F)CCN1Cc1ccccc1	>10	3.12 nM	–
3.45 nM	–	0.33 nM	CC(C)(C)CN1CCN(C(=O)c2cc(Cn3c(=O)[nH]c(=O)c4ccccc43)ccc2F)CC1=O	>10	23.2 nM	–
4.86 nM	Active	0.83 nM	COCCN1CCN(C(=O)c2cc(Cn3c(=O)[nH]c(=O)c4ccccc43)ccc2F)CC1=O	–	61.3 nM	–
2.72 nM	–	0.49 nM	CCCCN1CCN(C(=O)c2cc(Cn3c(=O)[nH]c(=O)c4ccccc43)ccc2F)CC1=O	>10	20 nM	–
4.18 nM	–	0.71 nM	C=CCN1CCN(C(=O)c2cc(Cn3c(=O)[nH]c(=O)c4ccccc43)ccc2F)CC1=O	–	> 100 nM	–
9.85 nM	Active	2.35 nM	CC(C)=CCN1CCN(C(=O)c2cc(Cn3c(=O)[nH]c(=O)c4ccccc43)ccc2F)CC1=O	>10	6.54 nM	–
3.81 nM	–	5.62 nM	CN1CCN(C(=O)c2cc(Cn3c(=O)[nH]c(=O)c4ccccc43)ccc2F)CC1=O	1.18	51 nM	–
17.1 nM	–	6.31 nM	O=C1CN(C(=O)c2cc(Cn3c(=O)[nH]c(=O)c4ccccc43)ccc2F)CCN1CCCO	4.38	60.2 nM	–
3.79 nM	–	1.87 nM	O=C1CN(C(=O)c2cc(Cn3c(=O)[nH]c(=O)c4ccccc43)ccc2F)CCN1CC(F)(F)F	>10	18.6 nM	–
9.75 nM	–	2.63 nM	O=C1CN(C(=O)c2cc(Cn3c(=O)[nH]c(=O)c4ccccc43)ccc2F)CCN1CC1CC1	>10	14.9 nM	–
7.59 nM	–	1.22 nM	CCN1CCN(C(=O)c2cc(Cn3c(=O)[nH]c(=O)c4ccccc43)ccc2F)CC1=O	>10	23.3 nM	–
1.02 nM	Active	0.62 nM	O=C(c1cc(Cn2c(=O)[nH]c(=O)c3ccccc32)ccc1F)N1CCN(c2ccccc2)C(=O)C1	>10	4.88 nM	–
